# Tests used:
# FoxO1 = FoxO1 phosphorylation levels in AML-12 cells (western blot); assay type: cell-based, mouse; details: 24 hours, FIG. 6
# Method: AML-12 cells are treated with different concentrations of a compound of Formula (I), Formula (Ia), Formula (Ib), Formula (II), or Formula (III), or a pharmaceutically acceptable salt thereof. Cells are then lysed, and analyzed by SDS-PAGE/western blot. Blocking and antibody incubations are then done and each protein present is detected with its specific antibody.
# AML-12 cells were treated with different concentrations of Compound 1 or Compound 17 for 24 hours. Cells were then lysed in lysis buffer (50 mM Tris, 150 mM KCl, EDTA 1 mM, NP40 1%) containing protease and phosphatase inhibitors, and analyzed by SDS-PAGE/western blot. Blocking and antibody incubations were done in 5% milk. Each protein present was detected with its specific antibody. Tubulin antibody was obtained from Sigma Inc, FoxO1 and phopho-FoxO1 (Ser256) antibodies were obtained from Cell Signaling. Antibody detection reactions were developed by enhanced chemiluminescence (Advansta, Calif., USA) using x-ray films.
# hERG potassium channel = hERG potassium channel (Homo sapiens (Human), UniProt Q12809); assay: Predictor hERG assay, fluorescence polarization tracer displacement; details: hERG channel affinity binding; DMSO 1%
# Text: The Predictor hERG assay kit is stably transfected with hERG potassium channel and a high-affinity red fluorescent hERG channel ligand and is used for the determination of hERG channel affinity binding of compounds of Formula (I), Formula (Ia), Formula (Ib), Formula (II), or Formula (III), or a pharmaceutically acceptable salt thereof. Compounds that bind to the hERG channel protein (competitors) are identified by their ability to displace the tracer which results in a lower fluorescence polarization.
# The Predictor hERG assay kit (Invitrogen), containing membrane preparations from Chinese hamster ovary cells stably transfected with hERG potassium channel and a high-affinity red fluorescent hERG channel ligand (tracer), was used for the determination of hERG channel affinity binding of the test compounds in Table 2. Compounds that bind to the hERG channel protein (competitors) were identified by their ability to displace the tracer, resulting in a lower fluorescence polarization. The final concentration of DMSO in each well was maintained at 1%. The assays were performed according to the manufacturer's protocol (Invitrogen).
# [1] = system: SIRT1-regulated genes (Sod2); assay: RT-qPCR analysis of SIRT1-regulated genes in Hepa-1.6 cells; assay type: cell-based; details: Hepa-1.6 hepatic cell line; 24 hrs
# Method: (§1) Cells (AML-12, Hepa-1.6, HEK-293, primary human and murine hepatocytes) are treated with different concentrations of a compound of Formula (I), Formula (Ia), Formula (Ib), Formula (II), or Formula (III), or a pharmaceutically acceptable salt thereof and the gene expression of ACMSD, Pgc1a, Sod1, and Sod2 (MnSOD) is determined using RT-qPCR. Total RNA is extracted from cells and the extracted RNA is treated with DNase and used for reverse transcription (RT).
# (§2) Gene expression of ACMSD and genes known to be regulated by SIRT1, (an enzyme that is strictly NAD^+ dependent) such as Pgc1a, Sod1, Sod2 (MnSOD), were analysed in AML-12 cells, Hepa-1.6 cells and primary murine hepatocytes treated with Compound 1 or 17.
# (§3) Cells (AML-12, Hepa-1.6, HEK-293, primary human and murine hepatocytes) were treated with different concentrations of Compound 1 or Compound 17. Total RNA was extracted from cells using TRIzol (Invitrogen) according to the manufacturer's instructions. The RNA was treated with DNase, and 2 μg of RNA was used for reverse transcription (RT). 50× diluted cDNA was used for RT-quantitative PCR (RT-qPCR) reactions. The RT-qPCR reactions were performed using the Light-Cycler system (Roche Applied Science) and a qPCR Supermix (QIAGEN) with the indicated primers. The average of at least three technical repeats was used for each biological data point.
# SOD2 [2] = assay: Modulation of SOD2 activity in murine primary hepatocytes; assay type: cell-based, mouse; details: primary murine hepatocytes; 24 hours
# Method: (§4) Primary hepatocytes or AML-12 cells are lysed and total protein concentration is determined using the Bradford assay. SOD2 activity is determined at indicated times after treatment with a compound of Formula (I), Formula (Ia), Formula (Ib), Formula (II), or Formula (III), or a pharmaceutically acceptable salt thereof, using a SOD Assay Kit. Absorbance is determined and results are expressed in U/ml/mg of protein according to the standard curve and measured protein concentration.
# Primary hepatocytes were prepared from 8-12-week-old C57BL/6J mice by collagenase perfusion method. Mouse livers were perfused with Hank's balanced salt solution (HBSS, KCl, 5.4 mM; KH2PO4, 0.45 mM; NaCl, 138 mM; NaHCO3, 4.2 mM; Na2HPO4, 0.34 mM; glucose, 5.5 mM; […]; EGTA, 50 mM; CaCl2, 50 mM; pH 7.4). Livers were then washed at a rate of 5 ml/min through the portal vein. After washing, livers were perfused with collagenase (0.025%) solution. Cell viability was assessed by the trypan blue method. Isolated primary hepatocytes were plated with DMEM medium (Gibco) including 10% FCS, 10 units per ml penicillin and HEPES for buffering. The cells were maintained in culture at 37° C. in a humidified atmosphere of 5% CO2/95% air. After 6-8 hrs of attachment, this medium was replaced with media containing different concentrations of an ACMSD inhibitor (i.e., Compound 1 or Compound 17) or with the corresponding concentration of DMSO (as a control). Primary hepatocytes were harvested about 24 hrs later if not indicated differently.
# (§5) Primary hepatocytes or AML-12 cells were then lysed in a 20 mM HEPES buffer (Gibco), pH 7.2, containing 1 mM EGTA (Sigma), 210 mM mannitol (Sigma), and 70 mM sucrose (AMRESCO). Total protein concentration was determined using the Bradford assay (BioRad). SOD-2 activity was determined at indicated times after ACMSD inhibitor treatment by the SOD Assay Kit (Cayman Chemical) according to the manufacturer's instructions. In order to specifically detect the SOD2 activity 2 mM potassium cyanide was added to the assay, which inhibited both Cu/Zn-SOD and extracellular SOD, resulting in the detection of only Mn-SOD (SOD-2) activity. Absorbance was determined with a Victor X4 multi-label plate reader (Perkin-Elmer) at 450 nm. Results are expressed in U/ml/mg of protein according to the standard curve and measured protein concentration.
# [3] = system: SIRT1-regulated genes (Sod2); assay: RT-qPCR analysis of SIRT1-regulated genes in AML-12 cells; assay type: cell-based, mouse; details: 24 hrs
# Method: as §1, §2, §3
# ACMSD-1 = ACMSD-1 (Homo sapiens (Human), UniProt Q8TDX5); assay: ACMSD-1 modulation in HEK293T cells transiently expressing ACMSD; assay type: cell-based; details: about 50 nM to about 5 uM, 48 hrs to 72 hrs
# Method: HEK293T cells are seeded and transfected to transiently express ACMSD. The cells are then stimulated with different concentrations of Compound 1, and then lysed to measure the ACMSD activity in a spectrophotometrical in vitro assay. The amount of the whole protein content in cell lysates is detected by Bradford analysis and used to get the specificity activity of the enzyme normalized in all samples.
# HEK293T cells (ATCC) were seeded in six-well plates and transfected using Fugene HD to express transiently ACMSD. 24 hrs post transfection, the cells were stimulated for 48 hrs to 72 hrs with different concentrations of Compound 1 and then lysed to measure the ACMSD activity, by measuring the conversion of 30H-Anthranilic Acid into product (i.e. α-amino-beta-carboxymuconate-ε-semialdehyde, ACMS) in a spectrophotometrical in vitro assay. The amount of the whole protein content in cell lysates was detected by Bradford analysis. This value was used to get the specificity activity of the enzyme normalized in all samples (mU/ml or ΔE/Δt/mg of total protein).
# Having determined the optimum stimulation time and transfection protocol cells were stimulated with different concentrations of Compound 1 (about 50 nM to about 5 uM).
# SOD2 [4] = assay: Modulation of SOD2 activity in AML-12 cells; assay type: cell-based, mouse; details: 24 hours
# Method: as §4, with “concentration. […]” for “concentration.”
# as §5, with “In order to specifically detect the SOD2 activity 2 mM potassium cyanide was added to the assay, which inhibited both Cu/Zn-SOD and extracellular SOD, resulting in the detection of only Mn-SOD (SOD-2) activity.” left out
# AML-12 cells = assay: Cytotoxicity (LDH release, ATP level) in AML-12 cells; assay type: cell-based, mouse; details: 10 nM to 300 μM; 4 hrs; DMSO 1%
# Method: (§6) HePG2 and AML-12 cells are seeded and a dose-response of the compound is performed at various concentrations. Cells are stimulated and the supernatant is used to perform LDH release as a measure of necrosis while the cells are lysed to detect ATP levels for determining cell viability.
# (§7) Cytotoxicity: 20000 HePG2 and AML-12 cells were seeded in 96 well plate (Viewplate PerkinElmer). Dose-response of the compound in Table 2 was performed using HP D300 digital dispenser, ranging from 10 nM to 300 μM with constant DMSO 1% in medium. Cells were stimulated for 4 hrs at 37° C.; the supernatant was used to perform LDH release (Cytotox-one, Promega) as a measure of necrosis while the cells were lysed to detect ATP level for determining cell viability (Celltiter-glo, Promega) according to manufacturer's instructions.
# HePG2 cells = assay: Cytotoxicity (LDH release, ATP level) in HePG2 cells; assay type: cell-based; details: 10 nM to 300 μM; 4 hrs; DMSO 1%
# Method: as §6, §7
# hACMSD (ACMSD1) = hACMSD (ACMSD1) (Homo sapiens (Human), UniProt Q8TDX5); assay: Determination of ACMSD1 inhibition, spectrophotometrical in vitro assay; assay type: biochemical; details: 500 μM
# Method: The activity of compounds as inhibitors of ACMSD1 is determined in a spectrophotometrical in vitro assay. The pre-assay mixture is incubated and a compound of Formula (I), Formula (Ia), Formula (Ib), Formula (II), or Formula (III), or a pharmaceutically acceptable salt thereof, and ACMSD1 solution is then added. The effect of ACMS concentration on the enzyme activity is investigated by varying 3-hydroxyanthranilic acid (3OH-HA) concentration in the pre-assay mixture. Kinetic parameters are calculated from the initial velocity data using a Lineweaver-Burk plot.
# The activity of compounds 1-19 and 21-23 as inhibitors of ACMSD1 was determined by measuring the conversion of 30H-Anthranilic Acid into product (i.e., ACMS) in a spectrophotometrical in vitro assay.
# The pre-assay mixture consisting of 3-hydroxyanthranilic acid (3OH-HA), 3-hydroxyanthranilic acid, 3,4-diOxygenase (HAO), and a dialyzed crude extract of E. coli BL21 (DE3) cells expressing the recombinant enzyme, was incubated at 25° C. with monitoring of the increase in absorbance at 360 nm due to the formation of ACMS from 3OH-HA. After the reaction was completed within ˜2 mins, an aliquot of ACMSD1 solution (prepared and purified from Pichia Pastoris overexpressing the recombinant enzyme) was added, and the decrease in absorbance at 360 nm was followed at 15 second intervals. […]
# hERG potassium channel, sequence (Q12809 whole entry): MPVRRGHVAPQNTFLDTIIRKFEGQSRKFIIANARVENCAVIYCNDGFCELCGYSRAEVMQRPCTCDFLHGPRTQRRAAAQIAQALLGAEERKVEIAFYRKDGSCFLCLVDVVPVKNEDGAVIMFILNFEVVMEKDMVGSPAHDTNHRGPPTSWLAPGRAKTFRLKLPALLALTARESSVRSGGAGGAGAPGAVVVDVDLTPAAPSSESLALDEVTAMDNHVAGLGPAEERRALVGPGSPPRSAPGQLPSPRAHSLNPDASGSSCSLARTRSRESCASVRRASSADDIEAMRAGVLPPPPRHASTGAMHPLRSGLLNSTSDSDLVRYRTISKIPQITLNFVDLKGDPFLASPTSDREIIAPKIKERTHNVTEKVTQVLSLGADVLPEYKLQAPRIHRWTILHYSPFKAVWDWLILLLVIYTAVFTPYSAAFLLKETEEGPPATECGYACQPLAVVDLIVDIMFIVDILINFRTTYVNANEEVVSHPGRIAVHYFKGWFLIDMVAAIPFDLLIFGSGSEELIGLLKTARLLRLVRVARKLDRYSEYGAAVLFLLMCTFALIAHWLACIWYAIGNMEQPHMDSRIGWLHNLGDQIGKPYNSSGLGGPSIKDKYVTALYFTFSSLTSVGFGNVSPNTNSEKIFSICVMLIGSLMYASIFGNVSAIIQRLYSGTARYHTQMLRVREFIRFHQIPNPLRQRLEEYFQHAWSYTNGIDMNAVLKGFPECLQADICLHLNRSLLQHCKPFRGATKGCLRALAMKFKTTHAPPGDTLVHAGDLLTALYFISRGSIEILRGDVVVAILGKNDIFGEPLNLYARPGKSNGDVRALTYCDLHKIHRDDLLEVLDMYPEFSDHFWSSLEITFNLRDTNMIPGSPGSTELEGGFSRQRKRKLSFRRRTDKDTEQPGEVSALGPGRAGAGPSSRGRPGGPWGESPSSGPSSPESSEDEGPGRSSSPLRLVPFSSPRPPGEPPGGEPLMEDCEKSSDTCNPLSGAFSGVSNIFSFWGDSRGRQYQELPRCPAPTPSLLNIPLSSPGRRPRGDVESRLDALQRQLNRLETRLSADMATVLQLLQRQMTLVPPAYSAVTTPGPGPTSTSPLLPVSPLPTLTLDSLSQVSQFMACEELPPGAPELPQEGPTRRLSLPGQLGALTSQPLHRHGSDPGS
# hACMSD (ACMSD1), sequence (Q8TDX5 whole entry): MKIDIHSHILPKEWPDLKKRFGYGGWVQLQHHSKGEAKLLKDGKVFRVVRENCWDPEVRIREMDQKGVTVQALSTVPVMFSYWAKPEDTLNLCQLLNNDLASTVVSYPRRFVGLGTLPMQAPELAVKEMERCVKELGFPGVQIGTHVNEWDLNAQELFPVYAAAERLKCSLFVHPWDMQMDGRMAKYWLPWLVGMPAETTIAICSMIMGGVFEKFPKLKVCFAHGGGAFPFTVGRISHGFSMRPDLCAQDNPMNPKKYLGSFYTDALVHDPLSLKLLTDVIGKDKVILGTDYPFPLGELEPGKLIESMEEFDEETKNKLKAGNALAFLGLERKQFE
# ACMSD-1, sequence (Q8TDX5 whole entry): as above
SMILES,FoxO1 phosphorylation at Ser256 (FoxO1),hERG (hERG potassium channel),Sod2 mRNA levels [1],SOD2 activity (SOD2 [2]),Sod2 mRNA levels [3],ACMSD-1 activity in over-expression cell-based assay (ACMSD-1),SOD2 activity (SOD2 [4]),Cytotoxicity AML-12 (AML-12 cells),Cytotoxicity Hep-G2 (HePG2 cells),inhibition of purified ACMSD-1 enzyme (hACMSD (ACMSD1))
N#Cc1c(-c2ccccc2)nc(SCc2cccc(C(=O)O)c2)[nH]c1=O [Compound 1],decrease in FoxO1 phosphorylation at Ser256 with increasing dose,No Activity,increased in a dose-dependent manner,induced in a dose-dependent manner,increased in a dose-dependent manner,"inhibited ACMSD-1 activity, in a dose dependent manner",induced in a dose-dependent manner,Not Toxic,Not Toxic,
"CCCCC(CC)COC(=O)c1ccccc1C(=O)O (stereo not shown) [MEHP, mono-(2-ethylhexyl)phthalate]",,,,,,,,,,70%
